Measurements taken from patent publication US9247759B2, “Identification of human T2R receptors that respond to bitter compounds that elicit the bitter taste in compositions, and the use thereof in assays to identify compounds that inhibit (block) bitter taste in compositions and use thereof” (SENOMYX, INC., priority 2007, dated 2016).
pIC50: −log10 of the molar value. Where two headings read alike, the source gives them in different places.

How the values were obtained:
[1] = target: hT2R10 (Homo sapiens (Human), UniProt Q9NYW0); assay: hT2R panel inhibition, transient HEK293 G16g44, agonist Strychnine 50 μM; type: cell-based; conditions: HEK293, read-out: screening result against bitter receptor 10, compound at 25 μM; receptor activated to EC80 with the corresponding agonist
Chain of hT2R10 (Q9NYW0 whole entry): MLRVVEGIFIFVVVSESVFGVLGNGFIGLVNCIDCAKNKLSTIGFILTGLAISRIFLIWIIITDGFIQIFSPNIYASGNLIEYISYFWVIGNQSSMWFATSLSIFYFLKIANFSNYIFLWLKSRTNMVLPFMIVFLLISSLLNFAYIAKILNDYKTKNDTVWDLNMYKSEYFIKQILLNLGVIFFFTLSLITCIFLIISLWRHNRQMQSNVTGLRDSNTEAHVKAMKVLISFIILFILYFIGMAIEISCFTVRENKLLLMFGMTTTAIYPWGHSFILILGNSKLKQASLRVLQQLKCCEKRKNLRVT
Experimental: (§1) Specifically, in order to evaluate the inhibitory selectivity of the Compound C compound, this compound was tested against 22 human T2Rs which were deorphaned by Senomyx. These receptors and the bitter ligands that activate these human T2Rs are reported in earlier patent applications which are incorporated by reference herein. These 22 human T2Rs are hT2R1, 3, 4, 5, 7, 8, 9, 10, 13, 14, 16, 44, 51, 54, 55, 61, 63, 64, 65, 67, 71 and 75. The amino acid and nucleic acid sequences of all of these T2Rs may be found in these earlier patent applications. These human T2Rs were each individually transiently transfected into HEK293 cells that stably express the promiscuous G protein G16g44 and functional assays were effected using these receptors as disclosed in these same patent applications. […] The ligands were used at EC80 concentration levels. The list of bitter ligands utilized and the tested ligand concentrations are contained in Table 5 of this example.
(§2) Relating to the foregoing, FIG. 5 contains experimental results wherein Compound C was tested with different agonist compounds. The inhibition activity is represented by the reduction of receptor activity in the presence of Compound C. […] These 13 hT2Rs are hT2R3, 7, 10, 14, 16, 44, 51, 55, 61, 63, 64, 65, and 71.

[2] = target: hT2R64 (Homo sapiens (Human), UniProt P59538); assay: hT2R panel inhibition, transient HEK293 G16g44, agonist Aristolochic Acid 1 μM; type: cell-based; conditions: HEK293, compound at 25 μM; receptor activated to EC80 with the corresponding agonist; read-out: screening result against bitter receptor 64
Chain of hT2R64 (P59538 whole entry): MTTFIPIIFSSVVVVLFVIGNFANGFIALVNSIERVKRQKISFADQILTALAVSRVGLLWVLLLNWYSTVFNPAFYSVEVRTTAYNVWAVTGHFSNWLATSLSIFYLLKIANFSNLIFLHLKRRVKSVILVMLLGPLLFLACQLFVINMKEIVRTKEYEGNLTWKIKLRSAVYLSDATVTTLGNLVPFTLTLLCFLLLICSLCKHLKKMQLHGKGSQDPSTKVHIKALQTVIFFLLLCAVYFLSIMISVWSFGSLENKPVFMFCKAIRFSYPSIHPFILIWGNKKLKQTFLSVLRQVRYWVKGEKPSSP
Experimental: as §1, §2

[3] = target: hT2R61 (Homo sapiens (Human), UniProt P59537); assay: hT2R panel inhibition, transient HEK293 G16g44, agonist Aristolochic Acid 25 nM; type: cell-based; conditions: HEK293, compound at 25 μM
Chain of hT2R61 (P59537 whole entry): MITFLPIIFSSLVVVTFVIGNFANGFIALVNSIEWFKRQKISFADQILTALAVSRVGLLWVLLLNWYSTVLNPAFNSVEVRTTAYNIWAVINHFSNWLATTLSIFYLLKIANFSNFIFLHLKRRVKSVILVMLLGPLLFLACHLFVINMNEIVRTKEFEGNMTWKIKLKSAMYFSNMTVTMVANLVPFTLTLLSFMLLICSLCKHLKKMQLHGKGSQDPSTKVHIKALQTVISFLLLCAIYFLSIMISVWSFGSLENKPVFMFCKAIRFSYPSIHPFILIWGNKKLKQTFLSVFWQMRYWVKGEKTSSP
Experimental: as §1, §2

[4] = target: hT2R3 (Homo sapiens (Human), UniProt Q9NYW6); assay: hT2R panel inhibition, transient HEK293 G16g44, agonist Chloroquine pH6.5 50 μM; type: cell-based; conditions: HEK293, compound at 25 μM; receptor activated to EC80 with the corresponding agonist; read-out: screening result against bitter receptor 3
Chain of hT2R3 (Q9NYW6 whole entry): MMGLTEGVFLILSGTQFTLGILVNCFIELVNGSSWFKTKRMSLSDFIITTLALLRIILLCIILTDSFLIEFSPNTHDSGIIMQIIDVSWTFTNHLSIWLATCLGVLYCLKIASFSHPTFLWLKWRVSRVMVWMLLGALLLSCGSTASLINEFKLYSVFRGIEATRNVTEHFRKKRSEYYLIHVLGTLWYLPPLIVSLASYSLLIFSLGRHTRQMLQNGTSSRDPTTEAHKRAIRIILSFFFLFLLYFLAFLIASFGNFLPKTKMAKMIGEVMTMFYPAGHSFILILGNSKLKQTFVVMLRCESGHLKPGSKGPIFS
Experimental: as §1, §2

[5] = test system: hT2R55; assay: hT2R panel inhibition, transient HEK293 G16g44, agonist Cinchonine 150 μM; type: cell-based, human; conditions: compound at 25 μM; receptor activated to EC80 with the corresponding agonist
Experimental: as §1, §2

[6] = test system: hT2R63; assay: hT2R panel inhibition, transient HEK293 G16g44, agonist Caffeine 1 mM or Andrographolide 100 μM; type: cell-based, human; conditions: compound at 25 μM; for screening result against bitter receptor 63: receptor activated to EC80 with the corresponding agonist; for inhibition of bitter receptor 63: receptor activated to EC80 with agonist
Experimental: as §1, §2

[7] = target: T1, hT2R14 (Homo sapiens (Human), UniProt Q9NYV8); assay: hT2R panel inhibition, transient HEK293 G16g44, agonist Aristolochic Acid 2 μM; type: cell-based; conditions: HEK293, compound at 25 μM
T1 sequence (Q9NYV8 whole entry): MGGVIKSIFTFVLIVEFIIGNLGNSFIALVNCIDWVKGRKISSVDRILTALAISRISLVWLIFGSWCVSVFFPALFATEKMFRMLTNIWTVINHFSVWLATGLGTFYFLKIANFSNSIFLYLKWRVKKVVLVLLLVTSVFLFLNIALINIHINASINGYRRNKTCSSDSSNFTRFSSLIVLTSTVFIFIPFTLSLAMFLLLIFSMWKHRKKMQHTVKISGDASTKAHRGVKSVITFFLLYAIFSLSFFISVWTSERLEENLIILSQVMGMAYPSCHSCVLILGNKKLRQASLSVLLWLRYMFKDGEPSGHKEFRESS
Experimental: as §1

[8] = target: hT2R5 (Homo sapiens (Human), UniProt Q9NYW4); assay: hT2R panel inhibition, transient HEK293 G16g44, agonist Picoline 10 mM; type: cell-based; conditions: HEK293, compound at 25 μM; receptor activated to EC80 with the corresponding agonist; read-out: screening result against bitter receptor 5
Chain of hT2R5 (Q9NYW4 whole entry): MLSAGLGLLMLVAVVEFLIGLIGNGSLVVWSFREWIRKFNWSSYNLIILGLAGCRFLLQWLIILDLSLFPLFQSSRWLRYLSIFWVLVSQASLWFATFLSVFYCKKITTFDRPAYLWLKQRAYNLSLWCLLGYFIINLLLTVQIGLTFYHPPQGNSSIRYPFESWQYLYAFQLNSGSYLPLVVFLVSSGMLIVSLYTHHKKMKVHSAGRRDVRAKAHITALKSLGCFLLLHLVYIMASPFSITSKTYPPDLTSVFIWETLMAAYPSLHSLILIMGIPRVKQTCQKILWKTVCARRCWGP
Experimental: as §1, §2

[9] = target: hT2R71 (Homo sapiens (Human), UniProt P59536); assay: hT2R panel inhibition, transient HEK293 G16g44, agonist Picric Acid 10 μM; type: cell-based; conditions: HEK293, compound at 25 μM; receptor activated to EC80 with the corresponding agonist; read-out: screening result against bitter receptor 71
Chain of hT2R71 (P59536 whole entry): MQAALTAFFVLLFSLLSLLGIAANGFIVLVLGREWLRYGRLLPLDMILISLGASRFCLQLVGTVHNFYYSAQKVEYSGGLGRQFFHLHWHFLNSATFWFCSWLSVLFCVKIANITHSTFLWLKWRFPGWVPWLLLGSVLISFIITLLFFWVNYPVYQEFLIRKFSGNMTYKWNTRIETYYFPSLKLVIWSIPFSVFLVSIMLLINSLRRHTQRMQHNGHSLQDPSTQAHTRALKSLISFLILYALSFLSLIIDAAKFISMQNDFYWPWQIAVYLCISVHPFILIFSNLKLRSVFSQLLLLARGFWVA
Experimental: as §1, §2

[10] = test system: hT2R44; assay: hT2R panel inhibition, transient HEK293 G16g44, agonist Denatonium 0.5 μM; type: cell-based, human; conditions: compound at 25 μM; for screening result against bitter receptor 44: receptor activated to EC80 with the corresponding agonist
Experimental: as §1, §2

[11] = target: hT2R7 (Homo sapiens (Human), UniProt Q9NYW3); assay: hT2R panel inhibition, transient HEK293 G16g44, agonist Chloroquine pH6.5 10 mM; type: cell-based; conditions: HEK293, compound at 25 μM; receptor activated to EC80 with agonist; read-out: inhibition of bitter receptor 7
Chain of hT2R7 (Q9NYW3 whole entry): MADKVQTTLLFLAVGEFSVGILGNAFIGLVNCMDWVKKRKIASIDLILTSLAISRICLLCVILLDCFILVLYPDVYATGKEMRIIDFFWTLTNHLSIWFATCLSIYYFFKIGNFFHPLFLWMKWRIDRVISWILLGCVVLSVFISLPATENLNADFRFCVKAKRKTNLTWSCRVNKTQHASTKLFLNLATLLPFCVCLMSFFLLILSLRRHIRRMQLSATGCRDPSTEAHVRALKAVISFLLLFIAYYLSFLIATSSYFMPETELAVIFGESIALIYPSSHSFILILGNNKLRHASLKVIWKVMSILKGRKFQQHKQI
Experimental: as §1, §2

[12] = target: T1, hT2R14; assay: hT2R14 antagonist high-throughput FLIPR assay, stable cell line with G16g44, agonist aristolochic acid; type: cell-based
Outline: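 HEK293 cells stably expressing hT2R14 with chimeric G16g44 were stimulated with aristolochic acid (3 μM), giving 70-80% of maximal receptor activity. Test compounds were added together with the agonist, and antagonism was read as fluorescent calcium signal on FLIPR.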

[13] = target: hT2R16 (Homo sapiens (Human), UniProt Q9NYV7); assay: hT2R panel inhibition, transient HEK293 G16g44, agonist Salicin 1 mM; type: cell-based; conditions: HEK293, compound at 25 μM; receptor activated to EC80 with the corresponding agonist; read-out: screening result against bitter receptor 16
Chain of hT2R16 (Q9NYV7 whole entry): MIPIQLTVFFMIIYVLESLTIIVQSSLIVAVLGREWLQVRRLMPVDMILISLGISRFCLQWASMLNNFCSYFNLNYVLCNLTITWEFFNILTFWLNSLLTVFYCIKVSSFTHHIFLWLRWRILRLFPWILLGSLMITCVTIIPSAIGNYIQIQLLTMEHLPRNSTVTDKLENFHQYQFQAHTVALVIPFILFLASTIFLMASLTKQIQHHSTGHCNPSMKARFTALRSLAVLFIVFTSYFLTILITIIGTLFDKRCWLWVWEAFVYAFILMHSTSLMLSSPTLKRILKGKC
Experimental: as §1, §2

[14] = receptor activated to EC80 with the corresponding agonist, read-out: screening result against bitter receptor 61
[15] = receptor activated to EC80 with the corresponding agonist, read-out: screening result against bitter receptor 14
[16] = receptor activated to EC80 with agonist, read-out: inhibition of bitter receptor 14

Row | Compound | inhibition at 25 µM [2] | inhibition at 25 µM [3, 14] | inhibition at 25 µM [4] | screening result against bitter receptor 55 [5] | screening result against bitter receptor 63 [6] | inhibition at 25 µM [7, 15] | inhibition at 25 µM [9] | screening result against bitter receptor 44 [10] | further results
1 | COc1ccc(CN(Cc2ccccc2)S(=O)(=O)CCC(=O)O)cc1 [Example 5-57, 3-(N-benzyl-N-(4-methoxybenzyl)sulfamoyl)propanoic acid] | 40 to 60% | > 80% | 20 to 40% | +++ (60% to 80% inhibition = +++) | – | – | – | – | inhibition at 25 µM [1]: 20 to 40%
2 | CN(Cc1ccccc1)S(=O)(=O)c1ccc(C(=O)O)cc1 [Example 5-55, 4-(N-benzyl-N-methylsulfamoyl)benzoic acid] | 40 to 60% | 20 to 40% | 20 to 40% | ++ (40% to 60% inhibition = ++) | ++++ (80% or greater inhibition = ++++) | > 80% | – | – | inhibition at 25 µM [8]: 20 to 40%
3 | COc1ccc(CN(Cc2ccccc2)C(=O)Nc2ccc(C(=O)O)cc2)cc1 [Example 5-94, 4-(3-benzyl-3-(4-methoxybenzyl)ureido)benzoic acid] | 60 to 80% | 20 to 40% | 20 to 40% | – | – | – | 20 to 40% | ++ (40% to 60% inhibition = ++) | –
4 | Cc1c(F)cccc1NS(=O)(=O)c1ccc2c(c1)c(=O)n(C)c(=O)n2C [Example 6-7, N-(3-fluoro-2-methylphenyl)-1,3-dimethyl-2,4-dioxo-1,2,3,4-tetrahydroquinazoline-6-sulfonamide] | – | – | – | – | – | – | – | – | inhibition of bitter receptor 63 [6]: + (20% to 40% inhibition = +); inhibition at 25 µM [7, 16]: 40 to 60%; inhibition at 25 µM [11]: 20 to 40%
5 | COc1ccc(CN(Cc2ccccc2)S(=O)(=O)c2ccc(CC(=O)O)cc2)cc1 [Example 5-47, 2-(4-(N-benzyl-N-(4-methoxybenzyl)sulfamoyl)phenyl)acetic acid] | – | 60 to 80% | 20 to 40% | – | + (20% to 40% inhibition = +) | – | 20 to 40% | + (20% to 40% inhibition = +) | –
6 | COc1ccc(CN(Cc2cccc(C)c2)S(=O)(=O)c2ccc(C(=O)O)cc2)cc1 [Example 5-65, 4-(N-(4-methoxybenzyl)-N-(3-methylbenzyl)sulfamoyl)benzoic acid] | – | – | 20 to 40% | – | – | – | – | – | –
7 | COc1ccc(CN(Cc2ccccc2)C(=O)c2ccc(C(=O)O)cc2)cc1 [Example 5-49, 4-(benzyl(4-methoxybenzyl)carbamoyl)benzoic acid] | 40 to 60% | 60 to 80% | 20 to 40% | ++++ (80% or greater inhibition = ++++) | + (20% to 40% inhibition = +) | – | 20 to 40% | + (20% to 40% inhibition = +) | –
8 | O=C(O)c1ccc(CN(Cc2ccc(F)cc2)S(=O)(=O)c2ccc(O)cc2)cc1 [Example 5-107, 4-((N-(4-fluorobenzyl)-4-hydroxyphenylsulfonamido)methyl)benzoic acid] | 60 to 80% | > 80% | – | + (20% to 40% inhibition = +) | +++ (60% to 80% inhibition = +++) | 60 to 80% | 20 to 40% | + (20% to 40% inhibition = +) | –
9 | COc1ccc(CNS(=O)(=O)c2ccc(C(=O)O)cc2)cc1 [Example 5-56, 4-(N-(4-methoxybenzyl)sulfamoyl)benzoic acid] | 20 to 40% | – | 20 to 40% | – | – | – | – | – | –
10 | Cc1ccccc1NS(=O)(=O)c1ccc2c(c1)c(=O)n(C)c(=O)n2C [Example 6-9, 1,3-dimethyl-2,4-dioxo-N-o-tolyl-1,2,3,4-tetrahydroquinazoline-6-sulfonamide] | – | – | – | – | – | – | – | – | inhibition of bitter receptor 63 [6]: + (20% to 40% inhibition = +); inhibition at 25 µM [7, 16]: > 80%; pIC50 ([12]; Table D, read-out: hT2R14 IC50): 5.76; inhibition at 25 µM ([3]; receptor activated to EC80 with agonist, read-out: inhibition of bitter receptor 61): 20 to 40%; inhibition at 25 µM [11]: 40 to 60%; inhibition of bitter receptor 44 ([10]; receptor activated to EC80 with agonist): + (20% to 40% inhibition = +)
11 | COc1ccc(CN(Cc2cccs2)S(=O)(=O)c2ccc(C(=O)O)cc2)cc1 [Example 5-61, 4-(N-(4-methoxybenzyl)-N-(thiophen-2-ylmethyl)sulfamoyl)benzoic acid] | 20 to 40% | 40 to 60% | – | + (20% to 40% inhibition = +) | ++++ (80% or greater inhibition = ++++) | – | 20 to 40% | – | inhibition at 25 µM [8]: 20 to 40%
12 | COc1ccc(C(NS(=O)(=O)c2ccc(C(=O)O)cc2)c2ccccc2)cc1 (stereo not drawn) [Example 5-97, 4-(N-((4-methoxyphenyl)(phenyl)methyl)sulfamoyl) benzoic acid] | 20 to 40% | 20 to 40% | – | – | +++ (60% to 80% inhibition = +++) | 20 to 40% | – | + (20% to 40% inhibition = +) | inhibition at 25 µM [13]: 60 to 80%
13 | COc1ccc(CN(Cc2ccc(C(=O)O)cc2)S(=O)(=O)c2ccc(O)cc2)cc1 [Example 5-44, 4-((4-hydroxy-N-(4-methoxybenzyl)phenylsulfonamido)methyl)-benzoic acid] | 40 to 60% | > 80% | 20 to 40% | + (20% to 40% inhibition = +) | ++++ (80% or greater inhibition = ++++) | > 80% | 40 to 60% | ++ (40% to 60% inhibition = ++) | pIC50 ([12]; read-out: IC50 on hT2R14 bitter receptor): 5.46
14 | COc1ccc(CN(Cc2ccncc2)S(=O)(=O)c2ccc(C(=O)O)cc2)cc1 [Example 5-86, 4-(N-(4-methoxybenzyl)-N-(pyridin-4-ylmethyl)sulfamoyl)benzoic acid] | – | 60 to 80% | – | – | +++ (60% to 80% inhibition = +++) | 20 to 40% | – | + (20% to 40% inhibition = +) | –
15 | COc1ccc(CN(Cc2cccc(C(=O)O)c2)S(=O)(=O)c2ccc(C(=O)O)cc2)cc1 [Example 5-82, 3-((4-carboxy-N-(4-methoxybenzyl)phenylsulfonamido)methyl) benzoic acid] | 20 to 40% | > 80% | – | – | ++++ (80% or greater inhibition = ++++) | – | 20 to 40% | – | –
16 | COc1ccc(CN(Cc2ccc(C(=O)O)cc2)S(=O)(=O)c2ccc(C(=O)O)cc2)cc1 [Example 5-38, 4-((4-carboxy-N-(4-methoxybenzyl)phenylsulfonamido)methyl)-benzoic acid] | 20 to 40% | > 80% | – | – | ++++ (80% or greater inhibition = ++++) | – | 20 to 40% | – | –
